Drawing on PubChem BioAssay AID1745844 (Carcinogenic Potency Database (CPDB), 2022), this text covers carcinogen call and TD50 for 11 compounds.

The series deals with rodent lifetime carcinogenesis bioassay, tumor incidence TD50. The experiment in a line: chronic cancer bioassays in animals – CPDB, compiled studies (AID 1745844).

“And” between values parts separate entries of the source, which are not always exact repeats. Equal values may be shown once. The source made the active and inactive calls. No rule for the calls is given here.

In general, TD50 refers to the 50% point of the dose-response relation for the toxic effect studied.

As to `CC=CC(=O)Oc1c(C(C)CCCCCC)cc([N+](=O)[O-])cc1[N+](=O)[O-]` (configuration not stated), the carcinogen call was “negative (inactive)” (mouse, strain B6AKF1, females, oral dosing, site: any site (literature study), lesion: several types, types named in the paper, dosed 76 weeks, study length 76 weeks); “negative (inactive)” (mouse, strain B6AKF1, females, oral dosing, site: liver, lesion: hepatoma, dosed 76 weeks, study length 76 weeks); “negative (inactive)” (mouse, strain B6AKF1, females, oral dosing, site: lung, lesion: adenoma, dosed 76 weeks, study length 76 weeks); “negative (inactive)” (mouse, strain B6C3F1, females, oral dosing, site: lung, lesion: several types, types named in the paper, dosed 76 weeks, study length 76 weeks); “negative (inactive)” (mouse, strain B6C3F1, males, oral dosing, site: lung, lesion: several types, types named in the paper, dosed 76 weeks, study length 76 weeks). Also, the TD50 reads like this: (mouse, strain B6AKF1, males, oral dosing, site: any site (literature study), lesion: several types, types named in the paper, dosed 76 weeks, study length 76 weeks) 11.9 mg/kg/day (inactive); (mouse, strain B6AKF1, males, oral dosing, site: liver, lesion: hepatoma, dosed 76 weeks, study length 76 weeks) 2.07 mg/kg/day (inactive); (mouse, strain B6AKF1, males, oral dosing, site: lung, lesion: adenoma, dosed 76 weeks, study length 76 weeks) 19.1 mg/kg/day (inactive); (mouse, strain B6C3F1, females, oral dosing, site: any site (literature study), lesion: several types, types named in the paper, dosed 76 weeks, study length 76 weeks) 1.21 mg/kg/day (inactive); (mouse, strain B6C3F1, females, oral dosing, site: liver, lesion: hepatoma, dosed 76 weeks, study length 76 weeks) 2.5 mg/kg/day (inactive); (mouse, strain B6C3F1, males, oral dosing, site: any site (literature study), lesion: several types, types named in the paper, dosed 76 weeks, study length 76 weeks) 0.405 mg/kg/day (inactive). Besides, the TD50 (mouse, strain B6C3F1, males, oral dosing, site: liver, lesion: hepatoma, dosed 76 weeks, study length 76 weeks) is 2.32 mg/kg/day (inactive).
Consider `NC(=O)N(CCF)N=O`, for which the TD50 is 0.125 mg/kg/day (rat, strain Fischer 344, males, by gavage, site: forestomach, lesion: one or several types, types not named, dosed 40 weeks, study length 104 weeks) and 0.279 mg/kg/day (rat, strain Fischer 344, males, by gavage, site: lung, lesion: several types, types named in the paper, dosed 40 weeks, study length 104 weeks).
As for `C[N+](C)(C)CCO`, the TD50 reads like this: (mouse, strain C3H/HeN, males, in feed, site: liver, lesion: hepatocellular adenoma, dosed 52 weeks, study length 52 weeks) 5650 mg/kg/day; (mouse, strain C3H/HeN, males, in feed, site: liver, lesion: hepatocellular carcinoma, dosed 52 weeks, study length 52 weeks) 6060 mg/kg/day; (mouse, strain C3H/HeN, males, in feed, site: liver, lesion: several types, types named in the paper, dosed 52 weeks, study length 52 weeks) 2770 mg/kg/day. Further, the carcinogen call (rat, strain Fischer 344, males, in feed, site: liver, lesion: neoplastic nodule, dosed 72 weeks, study length 103 weeks) was “negative (inactive)”.
Regarding `[O]=[Cr][O][Cr]=[O]`, the carcinogen call (rat, strain BD, both sexes, in feed, site: hypophysis, lesion: adenoma, dosed 85 weeks, study length 187 weeks) is “negative (inactive)” and the carcinogen call (rat, strain BD, both sexes, in feed, site: mammary gland, lesion: carcinoma, dosed 85 weeks, study length 187 weeks) was “negative (inactive)”. Moreover, for the setting “rat, strain BD, both sexes, in feed, site: mammary gland, lesion: fibroadenoma, dosed 85 weeks, study length 187 weeks”, the TD50 was 237000 mg/kg/day (inactive).
On to `Cc1ccc2ccccc2c1`, for which the TD50 runs as follows: (mouse, strain B6C3F1, females, in feed, site: liver, lesion: hepatocellular adenoma, dosed 81 weeks, study length 81 weeks) 6060 mg/kg/day; (mouse, strain B6C3F1, females, in feed, site: lung, lesion: several types, types named in the paper, dosed 81 weeks, study length 81 weeks) 4010 mg/kg/day; (mouse, strain B6C3F1, males, in feed, site: lung, lesion: alveolar/bronchiolar adenoma, dosed 81 weeks, study length 81 weeks) 735 mg/kg/day; (mouse, strain B6C3F1, males, in feed, site: lung, lesion: alveolar/bronchiolar carcinoma, dosed 81 weeks, study length 81 weeks) 2780 mg/kg/day; (mouse, strain B6C3F1, males, in feed, site: lung, lesion: several types, types named in the paper, dosed 81 weeks, study length 81 weeks) 205 mg/kg/day.
On to `CCCCN(CCCC)N=O`, for which the TD50 reads like this: (mouse, strain ICR/Jcl, males, in feed, site: esophagus, lesion: papilloma, dosed 52 weeks, study length 65 weeks) 11.9 mg/kg/day; (mouse, strain ICR/Jcl, males, in feed, site: forestomach, lesion: several types, types named in the paper, dosed 52 weeks, study length 65 weeks) 0.686 mg/kg/day; (mouse, strain ICR/Jcl, males, in feed, site: forestomach, lesion: squamous-cell carcinoma, dosed 52 weeks, study length 65 weeks) 1.09 mg/kg/day; (mouse, strain ICR/Jcl, males, in feed, site: forestomach, lesion: squamous-cell papilloma, dosed 52 weeks, study length 65 weeks) 7.69 mg/kg/day; (mouse, strain ICR/Jcl, males, in feed, site: liver, lesion: adenoma, dosed 52 weeks, study length 65 weeks) 4.34 mg/kg/day; (mouse, strain ICR/Jcl, males, in feed, site: liver, lesion: several types, types named in the paper, dosed 52 weeks, study length 65 weeks) 2.65 mg/kg/day. Further, the TD50 is 8 mg/kg/day (mouse, strain ICR/Jcl, males, in feed, site: lung, lesion: adenoma, dosed 52 weeks, study length 65 weeks); 0.914 mg/kg/day (rat, strain Fischer 344, males, by gavage, site: forestomach, lesion: carcinoma, dosed 30 weeks, study length 108 weeks); 0.691 mg/kg/day (rat, strain Fischer 344, males, by gavage, site: liver, lesion: hepatocellular carcinoma, dosed 30 weeks, study length 108 weeks); 1.16 mg/kg/day (rat, strain Fischer 344, males, by gavage, site: lung, lesion: carcinoma, dosed 30 weeks, study length 108 weeks); 1.47 mg/kg/day (rat, strain Fischer 344, males, by gavage, site: urinary bladder, lesion: transitional-cell carcinoma, dosed 30 weeks, study length 108 weeks).
With `CS(=O)(=O)c1ccc([C@@H](O)[C@@H](CO)NC(=O)C(Cl)Cl)cc1`, the TD50 (rat, strain F344/DuCrj, females, in drinking water, site: any site (literature study), lesion: one or several types, types not named, dosed 104 weeks, study length 108 weeks) was 43.2 mg/kg/day (inactive) and the TD50 (rat, strain F344/DuCrj, males, in drinking water, site: liver, lesion: hepatocellular adenoma, dosed 104 weeks, study length 108 weeks) was 683 mg/kg/day (inactive). Moreover, the carcinogen call is “negative (inactive)” (rat, strain F344/DuCrj, females, in drinking water, site: liver, lesion: one or several types, types not named, dosed 104 weeks, study length 108 weeks) and “negative (inactive)” (rat, strain F344/DuCrj, males, in drinking water, site: any site (literature study), lesion: one or several types, types not named, dosed 104 weeks, study length 108 weeks).
Turning to `C1CNCCN1`, the TD50 (rat, strain MRC, females, in drinking water, site: any site (literature study), lesion: several types, types named in the paper, dosed 75 weeks, study length 104 weeks) stood at 11.2 mg/kg/day.
With `CCC(Br)(CC)C(=O)NC(N)=O`, the TD50 (mouse, strain B6C3F1, females, in feed, site: any site (literature study), lesion: several types, types named in the paper, dosed 78 weeks, study length 104 weeks) was 5320 mg/kg/day; the TD50 (mouse, strain B6C3F1, females, in feed, site: liver, lesion: hepatocellular adenoma + hepatocellular carcinoma + neoplastic nodule, dosed 78 weeks, study length 104 weeks) came out at 1950 mg/kg/day; the TD50 (mouse, strain B6C3F1, females, in feed, site: lung, lesion: alveolar/bronchiolar adenoma + alveolar/bronchiolar carcinoma, dosed 78 weeks, study length 104 weeks) was 553 mg/kg/day (inactive) and 553 mg/kg/day; the TD50 (mouse, strain B6C3F1, males, in feed, site: liver, lesion: hepatocellular adenoma + hepatocellular carcinoma + neoplastic nodule, dosed 78 weeks, study length 104 weeks) was found to be 1580 mg/kg/day; the TD50 (rat, strain Fischer 344, males, in feed, site: any site (literature study), lesion: several types, types named in the paper, dosed 103 weeks, study length 104 weeks) is 1030 mg/kg/day (inactive). The carcinogen call by setting is: (mouse, strain B6C3F1, males, in feed, site: any site (literature study), lesion: several types, types named in the paper, dosed 78 weeks, study length 104 weeks) “negative (inactive)”; (rat, strain Fischer 344, females, in feed, site: any site (literature study), lesion: several types, types named in the paper, dosed 103 weeks, study length 104 weeks) “negative (inactive)”.
In the case of `CC1=C(C)C(=O)C(C(CCCCCC(=O)O)c2ccccc2)=C(C)C1=O` (configuration not stated), the carcinogen call is “negative (inactive)” (rat, strain Fischer 344/Jcl, females, in feed, site: liver, lesion: one or several types, types not named, dosed 52 weeks, study length 52 weeks) and “negative (inactive)” (rat, strain Fischer 344/Jcl, males, in feed, site: liver, lesion: one or several types, types not named, dosed 52 weeks, study length 52 weeks).
As for `Cc1cccc(N)c1`, the TD50 (mouse, strain CD-1 HaM/ICR, females, in feed, site: any site (literature study), lesion: several types, types named in the paper, dosed 77 weeks, study length 81 weeks) was 1950 mg/kg/day (inactive); the TD50 (mouse, strain CD-1 HaM/ICR, females, in feed, site: liver, lesion: several types, types named in the paper, dosed 77 weeks, study length 90 weeks) is 9990 mg/kg/day (inactive); the TD50 (mouse, strain CD-1 HaM/ICR, males, in feed, site: liver, lesion: hepatoma, dosed 77 weeks, study length 90 weeks) was 1440 mg/kg/day; the TD50 (mouse, strain CD-1 HaM/ICR, males, in feed, site: liver, lesion: several types, types named in the paper, dosed 77 weeks, study length 90 weeks) came out at 6770 mg/kg/day; the TD50 (rat, strain Charles River CD (Sprague-Dawley), males, in feed, site: any site (literature study), lesion: several types, types named in the paper, dosed 77 weeks, study length 98 weeks) is 98.4 mg/kg/day (inactive). Moreover, the carcinogen call (mouse, strain CD-1 HaM/ICR, females, in feed, site: any site (literature study), lesion: several types, types named in the paper, dosed 77 weeks, study length 90 weeks) was “negative (inactive)”; the carcinogen call (mouse, strain CD-1 HaM/ICR, females, in feed, site: liver, lesion: several types, types named in the paper, dosed 77 weeks, study length 81 weeks) is “negative (inactive)”; the carcinogen call (mouse, strain CD-1 HaM/ICR, females, in feed, site: lung, lesion: several types, types named in the paper, dosed 77 weeks, study length 81 weeks) is “negative (inactive)”; the carcinogen call (mouse, strain CD-1 HaM/ICR, females, in feed, site: lung, lesion: several types, types named in the paper, dosed 77 weeks, study length 90 weeks) is “negative (inactive)”; the carcinogen call (mouse, strain CD-1 HaM/ICR, males, in feed, site: lung, lesion: several types, types named in the paper, dosed 77 weeks, study length 90 weeks) was “negative (inactive)”; the carcinogen call (rat, strain Charles River CD (Sprague-Dawley), males, in feed, site: liver, lesion: several types, types named in the paper, dosed 77 weeks, study length 98 weeks) is “negative (inactive)”.
